The source of these data is PMC7359039, “Peptides based on the reactive center loop of Manduca sexta serpin-3 block its protease inhibitory function” (Scientific Reports, 2020).

Where only a bound is given, the exact number is not on record here.

In data set [1] the test system is serpin-3∆N. The data set can be described thus: Circular dichroism thermal stability of serpin-3∆N and its binary complex with peptide. The format is physicochemical, Manduca sexta. Particulars: binary complex purified by gel permeation; 10 mM Tris, 5 mM NaCl, pH 8.0; 90 °C highest temperature tested. The method, then:
To examine effects of RCL-derived peptides on serpin-3ΔN secondary structure, 600 µL serpin-3ΔN (150 μg) and 1.8 mL Ac-SVAFS-COO^− (25 μmol) were mixed and incubated at 37 °C for 2 h to allow formation of a serpin-peptide binary complex. Then the mixture was subjected to gel permeation chromatography using Superdex 200 10/300 GL ([…]) in 20 mM Tris–HCl, 150 mM NaCl, pH 8.0 to separate binary complex from free peptide. The fractions containing serpin-3ΔN, presumed to be in complex with peptide, were pooled and quantified. Ellipticity of serpin-3ΔN (0.149 mg/ml) or purified binary complex (0.129 mg/ml) in 10 mM Tris, 5 mM NaCl, pH 8.0 was measured in a 0.01 cm cuvette from 190 to 260 nm at 20 °C. The temperature was then increased in 10 °C increments, and the spectra were measured at each temperature from 20 to 90 °C. The ellipticity of the buffer was also recorded and subtracted from that of serpin-3ΔN and binary complex. The data were smoothed by the method of Savitzky-Golay with value of 15[33]. Mean residue ellipticity was calculated as (ellipticity × mean residue weight)/(10 × 0.01 cm × concentration). Three replicates were examined and results were visualized by GraphPad Prism (means ± standard deviation).

Data set [2] concerns proPO activation system in plasma. Put plainly: proPO activation in plasma with added serpin-3∆N, untreated or pre-incubated with peptide. The format is biochemical, Manduca sexta. Particulars: peptide 10 nmol pre-incubated with serpin-3∆N 0.1 µg at 37 °C 2 h, 2 µl plasma, one unit = 0.001 change of OD470 per minute, mean ± SD, n = 4 larvae. How it is done: Hemolymph was collected from day 2 fifth instar larvae and centrifuged at 12,000 rpm for 25 min at 4 °C to remove hemocytes, to prepare plasma samples containing the proPO activation system. To examine the effect of pre-incubation of peptide with serpin before exposure to plasma, Ac-SVAFS-COO^− (10 nmol in TFE) or TFE alone were dried in wells of a 96-well plate and then incubated with 4 µL serpin-3ΔN (0.1 µg) at 37 °C for 2 h, followed by incubation with 2 μl plasma at room temperature for 10 min. Then the proPO cascade was stimulated by addition of 1 μg Micrococcus luteus to activate the proPO protease cascade or filter-sterilized 0.85% NaCl as a control. These mixtures were incubated at room temperature for 10 min, and then PO activity was measured by adding 100 μl of 4 mM dopamine as substrate in 50 mM sodium phosphate, pH 6.5. PO activity was measured by detecting increase in absorbance at 470 nm. One unit of PO activity was defined as 1,000 × ∆A470/minute. Three replicates with four different larval plasma samples were examined. Paired one-way ANOVA with Tukey’s multiple comparison as post test was performed in GraphPad Prism.

Data set [3] can be described thus: Aqueous solubility of peptides (qualitative). The format is physicochemical. Particulars: qualitative statement.
Data set [4] relates to serpin-3∆N. The data set can be described thus: Time course of inactivation of serpin-3∆N by pentapeptides. The data set is classed as biochemical, Manduca sexta. Particulars: peptide 400 nmol, serpin-3∆N 720 ng, 37 °C; for suppression of serpin-3∆N inhibitory activity by 40 min: aliquots with 72 ng PAP3 10 min room temperature, IEARase activity. The method, then:
To examine the time course of peptide interaction with serpin-3ΔN, pre-dried Ac-SVAFS-NH2 or Ac-SVAFS-COO^- (400 nmol) were incubated with 40 μL purified serpin-3ΔN (720 ng) supplemented with 40 μL BSA (80 μg) at 37 °C for 1 h. At 0, 10, 20, 40 and 60 min, 12 μL aliquots were withdrawn and immediately incubated with 72 ng of PAP3 at room temperature for 10 min, followed by measuring residual PAP3 activity with […] in 0.1 M Tris, 0.1 M NaCl, 5 mM CaCl2, pH 8.0.

Data set [5] deals with Manduca sexta prophenoloxidase activating protease 3 (PAP3), activated form (Manduca sexta).
Data set [6] relates to serpin-3∆N. Put plainly: Blocking of serpin-3∆N inhibition of PAP3 by RCL-derived peptides (residual IEARase activity). The format is biochemical, Manduca sexta. Particulars: serpin-3∆N 135 ng, 37 °C 2 h; for PAP3 activity (percentage of IEARase activity) after treatment of serpin-3∆N with peptide: peptide 25 nmol pre-dried, then PAP3 108 ng 10 min room temperature, IEAR-pNA 50 µM, mean ± SD, n = 3; for blockage of serpin-3∆N inhibition of PAP3: peptide 25 nmol, PAP3 108 ng. The method, then: Peptides (25 nmol) in TFE or TFE alone as a control were applied to wells of a 96-well plate and allowed to dry (> 1 h). Serpin-3ΔN (135 ng/7.5 µl) was then added to the wells and incubated at 37 °C for 2 h. PAP3 (108 ng) supplemented with 18 μg bovine serum albumin (BSA) in 46.5 µl 20 mM Tris, 150 mM NaCl, pH 8.0,was then added to the wells and incubated for 10 min at room temperature. The PAP3 substrate N-acetyl-Ile-Glu-Ala-Arg-p-nitroanilide (IEAR-pNA) at 50 µM in 0.1 M Tris, 0.1 M NaCl, 5 mM CaCl2, pH 8.0 was then added, and residual PAP3 activity was measured by the change of absorbance at 405 nm over 20 min at room temperature. Percentage of IEARase activity was defined as IEARase activity divided by IEARase activity of PAP3 in the absence of serpin. One-way ANOVA with Tukey’s multiple comparison as post test was performed in GraphPad Prism. Samples for analysis by reducing SDS-PAGE and immunoblotting were prepared in a similar way. Peptides or TFE were dried in 1.5 mL microcentrifuge tubes and incubated with 7.5 µl serpin-3ΔN (135 ng) at 37 °C for 2 h, followed by addition of 46.5 µl PAP3 (108 ng) supplemented with 18 µg BSA. and further incubated for 10 min at room temperature. Samples were then analyzed by reducing SDS-PAGE and immunoblotting as described above.

The subject of data set [7] is proPO activation system in plasma (endogenous serpin-3). Put plainly: proPO activation in plasma mixed directly with peptide. Particulars: plasma incubated with pre-dried peptide 1 h room temperature, then M. luteus 10 min; one unit = 0.001 change of OD470 per minute; mean ± SD, n = 4 larvae. The format is biochemical, Manduca sexta. How it is done: For an experiment to test the effects of peptide mixed directly to plasma samples, pre-dried Ac-SVAFS-NH2 (25 nmol) or TFE in wells of a 96-well plate were incubated with 5 μl plasma for 1 h at room temperature, followed by addition of 95 μl of 50 mM sodium phosphate buffer, pH 6.5 supplemented with or without 2 μg of M. luteus (Sigma). After incubation for 10 min at room temperature, PO activity was measured as described above. Three replicates with four different larval plasma samples were examined. Statistical analysis was done as described above.

The subject of data set [8] is serpin-3∆N. The data set can be described thus: SDS-PAGE and immunoblot of serpin-3∆N/PAP3 inhibitory complex formation in presence of peptides. The data set is classed as biochemical, Manduca sexta. The conditions noted are these: peptide 25 nmol, serpin-3∆N 135 ng 37 °C 2 h, PAP3 108 ng 10 min; reducing SDS-PAGE, serpin-3 antiserum. The method, then:
Protein concentration was measured using Coomassie Plus Protein Assay Reagent (Thermo Scientific), with bovine serum albumin as a standard. Protein samples analyzed by SDS polyacrylamide gel electrophoresis were mixed with 2 × or 6 × SDS loading buffer (supplemented with β-mercaptoethanol) followed by heating at 95 °C for 5 min. Samples were loaded into wells of 4–12% Bis–Tris NuPAGE gels (Invitrogen) and separated by electrophoresis using MOPS buffer. The gels were stained using Instant Blue (Expedeon) or transferred to nitrocellulose in a semi-dry transfer cell (Bio-Rad). The presence of PAP3 or serpin-3ΔN on the membrane was detected using rabbit antisera to PAP3[31] or serpin-3[13], followed by goat anti-rabit IgG conjugated to alkaline phosphatase (BioRad) and colorimetric detection of immobilized alkaline phosphatase activity.
Peptides (25 nmol) in TFE or TFE alone as a control were applied to wells of a 96-well plate and allowed to dry (> 1 h). Serpin-3ΔN (135 ng/7.5 µl) was then added to the wells and incubated at 37 °C for 2 h. […] The PAP3 substrate N-acetyl-Ile-Glu-Ala-Arg-p-nitroanilide (IEAR-pNA) at 50 µM in 0.1 M Tris, 0.1 M NaCl, 5 mM CaCl2, pH 8.0 was then added, and residual PAP3 activity was measured by the change of absorbance at 405 nm over 20 min at room temperature. […] Samples were then analyzed by reducing SDS-PAGE and immunoblotting as described above.

For data set [9], the target named is Manduca sexta serpin-3∆N (Manduca sexta).
For data set [10] the target is unchanged. The source holds these as a separate data set.

In the case of Ac-SVAFS-COO^−, the “temperature up to which serpin-3∆N in complex with peptide showed little change in CD spectrum” value in [1] is ≥ 90 °C. Besides, in data set [2], the “PO activity in M. luteus-stimulated plasma with peptide-treated serpin-3∆N added” value came out at 8.7 ± 2.8 unit. Further, in data set [3], the aqueous solubility entry is “improved solubility”. In addition, in data set [3] (listed as five residue peptide SVAFS with only an N-terminal acetylated group), the aqueous solubility entry is “much more soluble”. Further, in data set [4], the “time after which inactivation of serpin-3∆N began to occur” value is ≤ 10 min and the “suppression of serpin-3∆N inhibitory activity by 40 min” value was ~ 100%.
“Manduca sexta serpin-3∆N (domain or fragment)”: in data set [5], the residual PAP3 amidase (IEARase) activity on IEAR-pNA after 10 min with serpin-3∆N, percent of PAP3 without serpin was 9%.
With “Ac-SVAFSATQ-NH2 [octapeptide from serpin-3 RCL P14-P7]”, in [6], the “PAP3 activity (percentage of IEARase activity) after treatment of serpin-3∆N with peptide” value is listed as 59% ± 5% and the “blockage of serpin-3∆N inhibition of PAP3” value is given as “about 50%”.
As for “Ac-SVAFS-NH2 [pentapeptide from serpin-3 RCL P14-P10, acetylated and amidated]”, the “PO activity in plasma incubated with peptide, after addition of bacteria” value in [7] was determined as 10.7 ± 5.5 unit. Moreover, in data set [6], the “PAP3 activity (percentage of IEARase activity) after treatment of serpin-3∆N with peptide” value is 100% ± 6% and the “blockage of serpin-3∆N inhibition of PAP3” value is recorded as “completely blocked”. Moreover, the “~75 kDa serpin-3∆N-PAP3 inhibitory complex on immunoblot” value in data set [8] is listed as “absence”. For the same molecule, the aqueous solubility entry in data set [3] is reported as “very low”. Besides, in data set [4], the “time after which inactivation of serpin-3∆N began to occur” value is ≤ 10 min and the “suppression of serpin-3∆N inhibitory activity by 40 min” value is given as ~ 100%.

B1: Ac-SVAFS-NH2 (peptide)
peptide: Ac-SVAFS-NH2
Turning to B1, the time course (0-60 min at 37 °C, 400 nmol peptide) of suppression of serpin-3∆N inhibition of PAP3, read as PAP3 IEARase activity in [9] came out at 100%. The residual PAP3 amidase (IEARase) activity after serpin-3∆N was pre-treated with 25 nmol peptide (37 °C, 2 h); the peptide blocks inhibition of PAP3 by serpin-3∆N in data set [10] was 100%.

B2: Ac-SVAFS-COO^− (peptide)
peptide: Ac-SVAFS-OH
In turn, B2 displayed a time course (0-60 min at 37 °C, 400 nmol peptide) of suppression of serpin-3∆N inhibition of PAP3, read as PAP3 IEARase activity in [9] of 100%.

B3: Ac-SVAFSATQ-NH2 (peptide)
peptide: Ac-SVAFSATQ-NH2
B3: in [10], the residual PAP3 amidase (IEARase) activity after serpin-3∆N was pre-treated with 25 nmol peptide (37 °C, 2 h); the peptide blocks inhibition of PAP3 by serpin-3∆N was 59%.
